According to article PMC10303271, “Synthesis and Receptor Binding Studies of α5 GABAAR Selective Novel Imidazodiazepines Targeted for Psychiatric and Cognitive Disorders” (Molecules, 2023):

How the values were obtained:
DOR = biological target: T1, DOR (Homo sapiens, UniProt P41143); test: PDSP radioligand binding at DOR; conditions: at 10,000 nM; N = 5; [3H]-DADLE 2.69 nM; read-out: Primary Binding %DOR
T1 construct: purchased NIMH Psychoactive Drug Screening Program (PDSP)
Source text: (§1) Opioid receptors are a family of inhibitory G-coupled protein receptors where opioids act as the ligand. The kappa opioid receptors (KOR), µ and δ opioid receptors (MOR and DOR), and nociception opioid receptor (NOP) fall under the family of opioids receptors. It has been reported that oxadiazole imidazodiazepines can mediate analgesic and anti-inflammatory properties mediated also by the κ opioid receptor (KOR). The binding at KOR is usually silent. The affinities of the test compounds for KOR, DOR, and MOR were determined using radioligand binding assays at a screening concentration of 10,000 nM in collaboration with the National Institute of Mental Health’s Psychoactive Drug Screening Program (PDSP), as mentioned before. Concentration-dependent experiments were conducted to determine Ki values for the compounds that exceeded more than 50% radioligand displacement in primary binding assays.
(§2) The NIMH PDSP assay protocol book [https://kidbdev.med.unc.edu/databases/PDSP%20Protocols%20II%202013-03-28.pdf accessed on 23 April 2023]. describes the protocols for primary and secondary radio-ligand binding assays. These assays were carried out in a final volume of 125 µL per well in the appropriate binding buffer.
(§3) The binding of a ligand to a receptor, ion channel, or transporter was determined in the […] of 10 µM of the appropriate reference compound. […] Plates were incubated in the dark for 90 min at rt, and the reactions were stopped by vacuum filtration onto 0.3% polyethyleneimine (PEI) soaked 96-well filter mats using a 96-well Filtermateharvester. This was followed by three washes with cold PBS buffer. Radioactivity was then counted on a Microbeta counter. Nonlinear regression was used to analyze the data with N = 6 replicates.

MOR = biological target: T2, MOR (Homo sapiens, UniProt P35372); test: PDSP radioligand binding at MOR; conditions: 1.5 h; at 10,000 nM; N = 5; [3H]-DAMGO 1.20 nM; read-out: Primary Binding %MOR
T2 construct: purchased NIMH Psychoactive Drug Screening Program (PDSP)
Source text: as §1, §2, §3

[1] = biological target: kappa opioid receptors (KOR) (Homo sapiens, UniProt P41145); test: PDSP radioligand binding at KOR; conditions: for inhibition at 10 µM: 1.5 h, at 10,000 nM, N = 5, [3H]-U69593 0.83 nM, read-out: Primary Binding %KOR
Source text: as §1, §2, §3

[2] = set-up: method as in PMID 35266641, PMID 36712569, doi:10.1016/j.euroneuro.2019.09.268; conditions: autism, antipsychotic activity, cognitive disorders; cited from earlier work

Chain of kappa opioid receptors (KOR) (P41145 whole entry): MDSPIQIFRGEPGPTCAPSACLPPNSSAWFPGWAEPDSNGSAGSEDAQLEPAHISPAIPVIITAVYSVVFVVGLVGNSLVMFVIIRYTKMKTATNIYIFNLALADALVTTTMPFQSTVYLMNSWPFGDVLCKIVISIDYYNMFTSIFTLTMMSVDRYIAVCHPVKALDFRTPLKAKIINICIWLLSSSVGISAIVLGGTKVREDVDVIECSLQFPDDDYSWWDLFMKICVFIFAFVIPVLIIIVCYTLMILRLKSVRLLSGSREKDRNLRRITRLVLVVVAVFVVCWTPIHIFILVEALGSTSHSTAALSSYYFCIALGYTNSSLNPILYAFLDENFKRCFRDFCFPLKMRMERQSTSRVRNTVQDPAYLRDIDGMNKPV
T1 sequence (P41143 whole entry): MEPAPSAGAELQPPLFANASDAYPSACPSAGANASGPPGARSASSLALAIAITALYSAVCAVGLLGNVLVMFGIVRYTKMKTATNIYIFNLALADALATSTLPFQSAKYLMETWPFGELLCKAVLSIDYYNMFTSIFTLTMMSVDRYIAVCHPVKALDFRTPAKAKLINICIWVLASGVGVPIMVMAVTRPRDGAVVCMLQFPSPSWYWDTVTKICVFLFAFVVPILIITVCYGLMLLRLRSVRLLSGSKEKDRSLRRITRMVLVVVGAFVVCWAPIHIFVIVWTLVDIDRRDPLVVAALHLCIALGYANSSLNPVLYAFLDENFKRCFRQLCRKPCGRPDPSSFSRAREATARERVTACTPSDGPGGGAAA
T2 sequence (P35372 whole entry): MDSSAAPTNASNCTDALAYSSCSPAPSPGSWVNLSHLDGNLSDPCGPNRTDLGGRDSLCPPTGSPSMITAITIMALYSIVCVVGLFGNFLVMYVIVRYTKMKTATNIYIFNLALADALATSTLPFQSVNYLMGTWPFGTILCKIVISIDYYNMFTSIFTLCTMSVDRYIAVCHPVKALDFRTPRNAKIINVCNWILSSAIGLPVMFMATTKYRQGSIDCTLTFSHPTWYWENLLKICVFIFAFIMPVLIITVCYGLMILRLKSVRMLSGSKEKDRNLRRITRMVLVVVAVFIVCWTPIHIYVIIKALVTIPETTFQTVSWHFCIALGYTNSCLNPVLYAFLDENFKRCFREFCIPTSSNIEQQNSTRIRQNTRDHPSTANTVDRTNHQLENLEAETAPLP

For `C[C@H]1N=C(c2ccccc2F)c2cc(Cl)ccc2-n2cnc(C(=O)N(C)C)c21` [Compound 32, (R)-8-Chloro-6-(2′-fluorophenyl)-N,N,4-trimethyl-4H-benzo[f]imidazo[1,5-a][1,4]diazepine-3-carboxamide], the inhibition at 10 µM (DOR) was 14.4 ± 7.98%, the inhibition at 10 µM (MOR) was 11.2 ± 5.47% and the Ki [1] was 731 ± 238 nM. The inhibition at 10 µM [1] was 81.4 ± 7.52%.

In the case of `CCc1noc(-c2ncn3c2[C@@H](C)N=C(c2ccccc2F)c2cc(C4CC4)ccc2-3)n1` [Compound 47], the inhibition at 10 µM (DOR) is reported as 67.3 ± 7.84%, the inhibition at 10 µM (MOR) is reported as 25.1 ± 12.8% and the Ki [1] is reported as 248 ± 22.6 nM. The inhibition at 10 µM [1] was 91.3 ± 3.06%.

In the case of `C#Cc1ccc2c(c1)C(c1ccccc1F)=N[C@H](C)c1c(C(=O)NC)ncn1-2` [MP-III-022], the “activity in psychiatric disorders” value [2] is listed as “active in low doses”.
